Data as given in patent US9101582B2, “Use of a pneumococcal P4 peptide for enhancing opsonophagocytosis in response to a pathogen” (priority 2008, dated 2015).
“And” between values parts separate entries of the source, which are not always exact repeats. Equal values may be shown once. “Also recorded” adds a separate entry of the source. Ends that are not written are not given here.

Columns and labels:
[1] = system: S. pneumoniae serotype 3 (WU2); test: Combination therapy of moribund mice after intranasal S. pneumoniae WU2 infection (Example 2); type: in vivo
Source text: S. pneumoniae serotype 3 (WU2) was used for mouse infections as described previously (Rajam et al. J. Infect. Dis. 199:1233-1238, 1999). P4, a 28-amino-acid peptide, was synthesized, purified, and prepared for combination therapy as described previously (Carlone et al. Microb. Pathog. 44:186-196, 2008). Gamma globulin (intravenous immunoglobulin [IVIG]; Gamunex, Telecris, N.C.) was used as a source of Pnc serotype-specific polysaccharide antibodies (Frasch and Scott Clin. Diagn. Lab. Immunol. 11:1158-1164, 2004; Rajam et al., Clin. Vaccine Immunol. 14:1223-1227, 2007; Romero-Steiner et al., Clin. Diagn. Lab. Immunol. 10:1019-1024, 2003). Ceftriaxone (catalog no. C5793; Sigma-Aldrich, St. Louis, Mo.), an expanded-spectrum cephalosporin, was dissolved in phosphate-buffered saline (0.01 M), and working dilutions in phosphate-buffered saline were made for mouse inoculations.
Female Swiss Webster mice (Charles River Laboratories, Wilmington, Mass.) 6 to 10 weeks of age were used in this study. All experiments were approved by the Institutional Animal Care and Use Committee (IACUC) and conducted according to the institutional ethical guidelines for animal experiments and safety guidelines.
Intranasal infections of mice with a Pnc isolate were carried out by adopting the methodology described by Briles et al., 2003. Briefly, a mouse was injected intraperitoneally (ip) with 20 μl of 100-mg/ml ketamine hydrochloride (KETASET®; Wyeth). Once the mouse was lethargic, 40 μl of the bacterial suspension (˜2.1×10^7 cells/mouse) was dispensed drop by drop close to the nose, allowing the mouse to inhale the bacteria. Scruffiness combined with a hunched posture or lethargy indicated moribundity in a mouse. […] Control groups included untreated animals or animals that received P4 alone, IVIG alone, or ceftriaxone (at 0.3, 3.0, 300, or 3,000 μg/mouse) alone. Treatment groups included mice that received a single inoculum containing P4 and IVIG with or without ceftriaxone at one of three different doses (0.3, 3.0, or 300 μg/mouse).
Mice were restrained using a Tailveiner restrainer (model no. TV-150; Braintree Scientific, Braintree, Mass.). IVIG and/or P4 was administered intravenously (iv) using a 25-gauge needle and a 1-ml syringe. IVIG (100-μl volume/mouse) was administered first, followed 20 min later by P4 (50 μg in a 100-μl volume/mouse). Ceftriaxone was administered (ip in a 100-μl volume/mouse) 30 min after P4 administration. Animals were monitored daily for 7 days or (in the repeat infection study) 36 days post treatment for clinical signs of disease progression. For repeat therapy, mice rescued with P4 combination therapy were reinfected on day 28 post treatment and treated again with P4 combination therapy.
The in vivo combination therapy experiments were repeated three to five times, and repeat therapy was performed once. The numbers of moribund animals up to 7 and 36 days after the combination and repeat therapies, respectively, were recorded, and the data were analyzed for significant differences among various groups by using the paired two-sample t test for means in MICROSOFT® Excel 2003.

[2] = system: S. pneumoniae serotype 3 (WU2); test: Test for bacteremia in blood of treated mice; type: in vivo; conditions: P4-treated mice
Description: Blood samples from P4-treated and untreated mice were collected (Rajam et al., J. Infect. Dis. 199:1233-1238, 2009), and […] aliquots of the heparinized blood samples were spread onto plates of blood agar (blood agar base plus 5% sheep blood plus gentamicin [2.5 mg/liter]). The plates were incubated for 18 to 24 hours at 37° C. in 5% CO^2, and bacteria were counted.

anti-P4 IgG = conditions: serum 14 days post infection from mice treated with P4 therapy
Description: Blood samples from mice treated with P4 therapy were collected 14 days post infection, and the serum fractions were separated by adopting the methodology described previously (Rajam, 2009). An enzyme-linked immunosorbent assay (ELISA) was performed to detect and quantify antiprotein immunoglobulin G (IgG) as described previously, with minor modifications (Scott, et al., Clin. Diagn. Lab. Immunol. 12:1195-1201, 2005; Scott et al., J. Infect. Dis. 186:220-226, 2002). Briefly, ELISA plates were coated with the P4 peptide at a 5-μg/ml concentration. Plates were incubated at 4° C. overnight and used to detect and quantify anti-P4 IgG in mouse sera. Horseradish peroxidase-labeled anti-mouse IgG (Sigma, St. Louis, Mo.) was used as the reporter antibody. SUREBLUE® 3,3′,5,5′-tetramethylbenzidine (KPL, Gaithersburg, Md.) was used as the substrate, and 1 N HCl was used as the stop solution. Samples were assayed in triplicate, and suitable positive and negative controls were included.

P4 toxicity test in mice = type: in vivo; conditions: ip, 1, 10, 100 and 1000 μg/mouse; 10-week-old ND4-SW mice
Description: At 72 hours, all the infected mice were moribund (n=60; moribund score, 2-3 [see below]). At 72 and 96 hours after infection, 40 animals were passively immunized with gamma globulin (100 μL/mouse; iv, n=20; ip, n=20). After a time lapse of 20 minutes, allowing for possible preopsonization in vivo, 20 of the passively immunized mice (intravenous (iv), n=10; intraperitoneal (ip), n=10) received P4 (100 μg; 100 μL/mouse) through an iv or ip route. Control mice were given DEPC water (100 μL) or P4 alone. Initially, P4 peptide was tested for toxicity in mice at 1, 10, 100, and 1000 μg. P4 was injected ip into 10-week-old ND4-SW mice at a constant volume of 100 μL.

[3] = system: HL-60-derived granulocytes; test: Flow cytometric opsonophagocytic assay (fOPA), respiratory burst with OXYBURST-labeled S. pneumoniae serotype 23F; type: cell-based, human; conditions: P4 100 μg/mL; QC2 serum; titrated out with antibody dilution; FIG. 2A
Description: (§1) The flow cytometric opsonophagocytic assay (fOPA) was performed with HL-60 cells differentiated into granulocytes or monocytes as described by Martinez et al., Clin Diagn Lab Immunol 9:485-8, 2002; Martinez et al., Clin Vaccine Immunol 13:459-66, 2006; and Mezzatesta et al., Infect Immun 42:99-105, 1983. In-house quality-control sera (QC5 and QC268) were used as a source for serotypespecific antibodies against the capsular Ps of S. pneumoniae serotype 14 and Neisseria meningitides A, respectively. Polystyrene beads were covalently linked to S. pneumoniae and non-S. pneumoniae antigens, as described by Martinez et al., Clin Diagn Lab Immunol 9:485-8, 2002; and Martinez et al., Clin Vaccine Immunol 13:459-66, 2006 and used in fOPA.
A loopful of the frozen stock of S. pneumoniae serotype 23F was grown overnight (37° C. in 5% CO2) in Todd-Hewitt broth (Difco) supplemented with 0.5% yeast extract (THYE). A loopful of the overnight culture was transferred to 1 mL of fresh THYE broth and incubated for 3 hours. From this, 200 μL was transferred to 5 mL of THYE broth and incubated for 3 hours, after which 1 mL was transferred to 5 mL of THYE broth and incubated for another 3 hours (all incubations were done at 37° C. in 5% CO2). After the third passage, the bacterial suspension was centrifuged at 6000 g for 10 minutes and resuspended in 1 mL of 0.01 mol/L phosphate buffered saline (PBS). […]

[4] = system: freshly isolated granulocytes from human blood; test: fOPA, opsonophagocytic uptake (OPU) of S. pneumoniae serotype 14 Ps-coated beads; type: cell-based; conditions: P4 100 μg/mL
Description: as §1
Heparinized venous blood was obtained from the Emory Blood Donor Services. A leukocyte separation kit, HISTOPAQUE®-1119 (Sigma), was used to separate granulocytes from the blood, in accordance with the method recommended by the manufacturer.

[5] = system: S. pneumoniae serotype 3 (WU2); conditions: P4 100 μg/ml; PMNs from infected (1 and 2 hours postinfection) or uninfected mice; gamma globulin as IgG source; P<0.05
Description: We used the in vitro opsonophagocytic killing assay (OPKA) as described previously by Romero-Steiner et al. (Romero-Steiner et al., Clin. Diagn. Lab. Immunol. 4:415-422, 1997) with polymorphonuclear leukocytes (PMNs) isolated from mice (Devi et al., Indian J. Physiol. Pharmacol. 39:354-360, 1995). Peripheral blood samples were collected from mice 1 and 2 hours postinfection (with Pnc WU2) or from uninfected controls as described previously (Frasch and Scott, 2004), and the buffy coat fractions were separated (Devi et al, 1995) and used as the source of effector cells. Gamma globulin (Gamunex, Telecris, N.C.) was used as the serotype-specific antibody source. S. pneumoniae serotype 3 (WU2) was propagated, stored, and used in this assay as described previously (Rajam et al., 2007; Romero-Steiner, 2006). A 100-μg/ml P4 peptide solution was added to the OPKA mixture at the preopsonization stage, and the control wells received diethyl pyrocarbonate water.

HL-60-derived monocytes = test: fOPA, OPU of N. meningitidis A Ps-coated beads; type: cell-based, human; conditions: P4 100 μg/mL; QC268 serum; FIG. 2C
Description: as §1

[6] = system: S. pneumoniae serotype 3 (WU2); test: Opsonophagocytic killing (OPK) assay with HL-60 cells differentiated into granulocytes; type: cell-based, Streptococcus pneumoniae

With CO/N=C(\C(=O)N[C@@H]1C(=O)N2C(C(=O)O)=C(CSc3nc(=O)c(=O)[nH]n3C)CS[C@H]12)c1csc(N)n1 [ceftriaxone, Ceftriaxone] the “protection (survival comparable to untreated controls)” value (“protection” for short) ([1]; ceftriaxone alone 0.3 μg ip) was “poor protection”, the “protection” value ([1]; ceftriaxone alone 3.0 μg ip) was “poor protection” and the “protection” value ([1]; ceftriaxone alone 300 μg ip) was “poor protection”. For the same compound, the survival rate ([1]; ceftriaxone alone 3,000 μg ip, 168 hours) was 90%.
With LFVESSVKRRPMKTVSQDTNIPIYAQIF [P4] the “bacteremia in blood samples” value [2] was “no bacteremia”, the “protection” value ([1]; P4 alone) was “poor protection” and the “anti-P4 IgG in serum” value (anti-P4 IgG) was “negative”. The “toxic effect on mice” value (P4 toxicity test in mice) was “no apparent toxic effect”, the “intraphagocytic respiratory burst (OXYBURST signal)” value [3] was “increase in the intraphagocytic respiratory burst; also recorded: increased the respiratory burst” and the “increase in OPU of S. pneumoniae serotype 14 Ps beads” value (from here on “increase in OPU”) ([4]; antibody dilution 1:64) was 52%. The “increase in OPU” value ([4]; antibody dilution 1:128) was 48%, the “increase in OPU” value ([4]; antibody dilution 1:256) was 25% and the “increase in OPU” value ([4]; antibody dilution 1:512) was 5%. The “OPU of S. pneumoniae serotype 14 Ps-coated beads (in words)” value ([4]; in the presence of QC2, FIG. 2B legend) was “increased the OPU”, the “increase in OPU” value ([4]; overall figure, FIG. 2B) was 50% and the “increase in opsonophagocytic killing over control” value [5] was > 80% and 80%. For the same compound, the “OPU of N. meningitidis A Ps-coated beads” value (HL-60-derived monocytes) was “increase in the OPU; also recorded: increased the OPU”, the “P4-mediated change in OPK over control” value ([6]; P4 5 μg/mL, gamma globulin 1:8, FIG. 1C) was “no change in OPK” and the “P4-mediated increase in OPK over control” value ([6]; P4 10 μg/mL, gamma globulin 1:8, FIG. 1C) was 8%. The “P4-mediated increase in OPK over control” value ([6]; P4 50 μg/mL, gamma globulin 1:8, FIG. 1C) was 30%, the “P4-mediated increase in OPK over control” value ([6]; P4 100 μg/mL, gamma globulin 1:8, FIG. 1C) was 35% and the “P4-mediated increase in OPK over control” value ([6]; absence of a complement source (heat-inactivated complement), FIG. 1B) was “no increase in OPK”. The “P4-mediated increase in OPK over control” value ([6]; gamma globulin 1:8 dilution, P4 100 μg/mL, FIG. 1A) was 35% and the “P4-mediated increase in OPK over control” value ([6]; gamma globulin 1:32 dilution, FIG. 1A) was “paralleling the results obtained for controls”.
